Patent US10835572B2, “Composition for external application” (ROHTO PHARMACEUTICAL CO., LTD., priority 2014, dated 2020)

Test: Discoloration on storage: rate of increase in ΔE*ab (color difference meter)
Format: physicochemical
Conditions: stored 4 days at 60° C. under protection from light; FIG. 4-8
Experimental: 20 ml aliquots of the compositions of the examples and comparative examples were filled into a glass bottle followed by determination of the initial ΔE*ab(0) value with a color difference meter (Spectrophotometer Model CM-5, Konica Minolta). At this time, purified water was used for the reference color. ΔE*ab(0) values are represented by the equation indicated below and used as an indicator to represent the degree of coloring of the compositions of the examples and comparative examples. ΔE*ab={(ΔL*)^2+(Δa*)^2+(Δb*)^2}^1/2 [Equation 1]
The L* value (ΔL*) is a value relating to lightness, the a* value (Δa*) is a value relating to red/green opponent colors in both directions, and the b* value (Δb*) is a value relating to blue/yellow opponent colors in both directions. The compositions of the aforementioned examples and comparative examples were each stored (under protection from light) at 40° C., 50° C. and 60° C. and then taken out after 4 days followed by determination of the ΔE*ab(4) value with the aforementioned color difference meter.
The rate of increase in the ΔE*ab values attributable to being stored for 4 days at the aforementioned temperatures was determined using the equation indicated below. The term “(D65)” in the equation indicates the use of Illuminant D65. Rate of increase in ΔE*ab(D65)=ΔE*ab(65)(4)/[…]

O=C1O[C@H]([C@@H](O)CO)C(O)=C1O[C@H]1O[C@H](CO)[C@@H](O)[C@H](O)[C@H]1O [ascorbyl glucoside]
discoloration, rate of increase in ΔE*ab (in words): discoloration was determined to not occur
